{
  "source": "paper PMC2234497",
  "about": "(The Journal of General Physiology, 2004)",
  "key": {"[1]": {"target": "T1, homomeric (CNGA1) rod CNG channels (Bos taurus, UniProt Q00194)", "T1 sequence (Q00194 1-690)": "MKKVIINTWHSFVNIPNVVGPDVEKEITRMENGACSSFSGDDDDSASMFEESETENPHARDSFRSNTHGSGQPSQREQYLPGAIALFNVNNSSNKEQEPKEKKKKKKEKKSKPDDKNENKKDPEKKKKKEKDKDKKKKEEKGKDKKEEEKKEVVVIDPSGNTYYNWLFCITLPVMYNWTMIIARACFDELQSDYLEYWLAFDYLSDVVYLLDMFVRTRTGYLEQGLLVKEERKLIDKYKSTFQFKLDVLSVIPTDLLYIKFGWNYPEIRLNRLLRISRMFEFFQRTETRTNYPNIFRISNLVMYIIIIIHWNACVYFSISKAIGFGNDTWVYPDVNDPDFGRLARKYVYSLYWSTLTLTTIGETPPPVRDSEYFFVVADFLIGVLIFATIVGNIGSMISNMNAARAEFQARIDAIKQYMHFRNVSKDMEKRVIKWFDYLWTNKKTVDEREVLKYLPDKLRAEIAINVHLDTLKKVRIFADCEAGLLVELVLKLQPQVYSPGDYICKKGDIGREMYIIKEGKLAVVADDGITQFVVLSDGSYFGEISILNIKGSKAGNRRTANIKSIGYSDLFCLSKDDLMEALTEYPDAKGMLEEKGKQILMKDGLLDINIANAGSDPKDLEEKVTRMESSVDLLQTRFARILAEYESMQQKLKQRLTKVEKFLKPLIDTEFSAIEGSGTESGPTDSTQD", "conditions": "cited from earlier work"}, "[2]": {"target": "heteromeric (CNGA1 + CNGB1) rod CNG channels (Bos taurus, UniProt Q00194+Q28181)", "sequence (Q28181 whole entry, one chain of several)": "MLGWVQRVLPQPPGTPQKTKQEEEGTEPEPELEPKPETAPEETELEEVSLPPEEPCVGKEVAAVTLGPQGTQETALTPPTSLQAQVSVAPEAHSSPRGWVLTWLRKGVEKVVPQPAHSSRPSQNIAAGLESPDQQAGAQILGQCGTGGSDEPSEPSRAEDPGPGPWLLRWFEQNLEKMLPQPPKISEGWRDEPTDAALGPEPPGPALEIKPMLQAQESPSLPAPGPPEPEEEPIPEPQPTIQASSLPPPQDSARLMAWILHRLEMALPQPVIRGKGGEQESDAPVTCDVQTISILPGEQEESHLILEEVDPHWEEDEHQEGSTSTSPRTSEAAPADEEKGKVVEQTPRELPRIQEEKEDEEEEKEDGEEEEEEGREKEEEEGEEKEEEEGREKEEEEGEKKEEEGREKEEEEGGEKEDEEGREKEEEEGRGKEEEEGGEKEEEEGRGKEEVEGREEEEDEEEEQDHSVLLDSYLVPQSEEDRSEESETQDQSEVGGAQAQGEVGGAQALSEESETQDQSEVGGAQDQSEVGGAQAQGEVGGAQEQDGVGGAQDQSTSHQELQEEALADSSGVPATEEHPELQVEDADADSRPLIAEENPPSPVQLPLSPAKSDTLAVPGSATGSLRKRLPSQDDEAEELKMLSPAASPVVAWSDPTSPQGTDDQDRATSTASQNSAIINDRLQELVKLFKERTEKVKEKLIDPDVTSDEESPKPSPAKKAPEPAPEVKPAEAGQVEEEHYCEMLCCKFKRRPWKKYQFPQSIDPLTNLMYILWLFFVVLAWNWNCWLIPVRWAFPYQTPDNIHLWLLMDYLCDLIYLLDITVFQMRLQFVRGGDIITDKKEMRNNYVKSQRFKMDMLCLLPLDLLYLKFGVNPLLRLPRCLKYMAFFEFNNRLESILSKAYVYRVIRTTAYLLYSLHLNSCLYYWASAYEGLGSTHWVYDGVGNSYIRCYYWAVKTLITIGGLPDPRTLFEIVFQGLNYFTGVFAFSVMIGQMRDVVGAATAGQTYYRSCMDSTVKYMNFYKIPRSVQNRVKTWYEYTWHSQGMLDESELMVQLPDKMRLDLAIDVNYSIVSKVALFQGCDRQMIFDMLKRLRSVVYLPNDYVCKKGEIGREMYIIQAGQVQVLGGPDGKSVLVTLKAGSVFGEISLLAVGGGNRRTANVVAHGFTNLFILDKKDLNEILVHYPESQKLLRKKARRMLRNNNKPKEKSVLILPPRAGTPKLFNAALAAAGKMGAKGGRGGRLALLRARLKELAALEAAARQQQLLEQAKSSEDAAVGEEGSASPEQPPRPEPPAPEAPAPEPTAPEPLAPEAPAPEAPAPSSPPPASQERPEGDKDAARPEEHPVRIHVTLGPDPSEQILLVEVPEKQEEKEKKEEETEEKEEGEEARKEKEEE", "conditions": "ref Chen et al., 1993; cited from earlier work"}, "[3]": {"target": "T1, homomeric (CNGA1) rod CNG channels", "assay_type": "cell-based, bovine"}, "[4]": {"conditions": "model fit of cGMP dose–response without ATR"}},
  "data": [
    {"smiles": "COc1ccc([C@H]2Sc3ccccc3N(CCN(C)C)C(=O)[C@H]2OC(C)=O)cc1", "note": "(relative stereo) [l-cis-diltiazem]", "values": [
      {"measurement": "effect on homomeric channels", "setting": "[1]; ref Chen et al., 1993", "result": "little effect"},
      {"measurement": "block of heteromeric channels", "setting": "[2]", "result": "sensitively blocks"}
    ]},
    {"smiles": "CC1=C(/C=C/C(C)=C/C=C/C(C)=C/CO)C(C)(C)CCC1", "note": "[all-trans-retinol]", "values": [
      {"measurement": "inhibition of the rod CNG channel", "setting": "[1]; ref Dean et al., 2002", "result": "inhibited quite well"}
    ]},
    {"smiles": "Nc1nc2c(ncn2[C@@H]2O[C@@H]3COP(=O)(O)O[C@H]3[C@H]2O)c(=O)[nH]1", "note": "[cGMP]", "values": [
      {"measurement": "open probability predicted by KcN and L", "setting": "[3]; 2 mM cGMP, no ATR", "result": 0.95},
      {"measurement": "KcN, association constant for cyclic nucleotide binding", "setting": "[3]; [4]", "result": "7,200 M^−1"},
      {"measurement": "L, equilibrium constant for the allosteric opening transition of the fully liganded channel", "setting": "[3]; [4]", "result": 19.8}
    ]}
  ]
}
